Experiment [1] deals with rat primary hippocampal neurons injured with Aβ. Briefly: Plate A: survival and neurite network of MAP-2 hippocampal neurons injured with Aβ1-42. Type of experiment: cell-based. Particulars: for Neurite length per neuron (total neurite network normalized by the number of neurons): FIG. 2C. The method, then:
(§1) Bambuterol, referred to as MR36621 in the experiments was tested on rat primary hippocampal neurons that were injured with Aβ. Donezpil was used as a reference test compound.
(§2) Rat hippocampal neurons were cultured as described by Callizot et al., Operational dissection of β-amyloid cytopathic effects of cultured neurons, J. Neurosci. Res. 2013 May; 91(5): 706-16. Pregnant female rats of 17 days gestation (Rats Wistar; Janvier Labs France) were euthanized using a deep anesthesia with a CO2 chamber followed by a cervical dislocation. Fetuses were removed from the uterus and immediately placed in ice-cold L15 Leibovitz medium with a 2% penicillin (10,000 U/ml) and streptomycin (10 mg/ml) solution (PS) and 1% bovine serum albumin (BSA).
(§3) Hippocampal neurons were treated for 20 min at 37° C. with a trypsin-EDTA solution at a final concentration of 0.05% trypsin and 0.02% EDTA. The dissociation was stopped by adding Dulbecco's modified Eagle's medium (DMEM) with 4.5 g/liter of glucose, containing DNAse I grade II (final concentration 0.5 mg/ml) and 10% fetal calf serum (FCS). Cells were mechanically dissociated by three forced passages through the tip of a 10-ml pipette and then centrifuged at 515×g for 10 min at 4° C.
The supernatant was discarded, and the pellet was resuspended in a defined culture medium consisting of Neurobasal medium with a 2% solution of B27 supplement, 2 mmol/liter of L-glutamine, 2% of PS solution, and 10 ng/ml of brain-derived neurotrophic factor (BDNF). Viable cells were counted in a Neubauer cytometer, using the trypan blue exclusion test. Cells were seeded at a density of 20,000 per well in 96-well plates precoated with poly-L-lysine and cultured at 37° C. in an air (95%)-CO2 (5%) incubator. The medium was changed every 2 days.
The hippocampal neurons were exposed with A solutions after 17 days of culture. An Aβ1-42 preparation was done following the procedure described by Callizot et al., 2013. Aβ1-42 is a forty-two amino acid form of amyloid β in cerebrospinal fluid and is recognized by persons of ordinary skill in the art as a biomarker for Alzheimer's disease.
Aβ1-42 peptide was dissolved in the defined culture medium mentioned above, at an initial concentration of 40 μM. This solution was gently agitated for 3 days at 37° C. in the dark and immediately used after being properly diluted in culture medium to the concentrations used (20 μM (plate 13) or 2.5 μM (plate 14) corresponding to 2 μM or 0.25 μM of oligomers (AβO) respectively).
Bambuterol was placed in a culture medium and preincubated for 1 hour before Aβ application. An Aβ1-42 preparation was added to a final concentration of 20 or 2.5 μM (=2 μM or 0.25 μM of AβO, evaluated by automatic WB) diluted in control medium in presence of the compound.
Table I identifies two plates that exposed two concentrations of Aβ to different concentrations of bambuterol. The bambuterol was preincubated 1 hour before the application of Aβ.
Twenty-four hours after intoxication, the hippocampal neurons were fixed by a cold solution of ethanol (95%) and acetic acid (5%) for 5 min at −20° C. After permeabilization with 0.1% of saponin, cells were incubated for 2 hours with: • (a) chicken polyclonal antibody anti microtubule-associated-protein 2 (MAP-2), diluted at 1/1000 in PBS containing 1% fetal calf serum and 0.1% of saponin (this antibody allows the specific staining of neuronal cell bodies and neurites; and allow the study of neuronal cell death and neurite network); and • (b) mouse monoclonal antibody anti-phospho Tau (AT100) at dilution of 1/400 in PBS containing 1% fetal calf serum and 0.1% of saponin.
For each condition, multiple pictures (representative of the whole well area) per well were taken using ImageXpress (Molecular Devices) at 20× magnification. All images were taken with the same acquisition parameters. Analyses were performed automatically by using Custom Module Editor® (Molecular Devices). […]

Experiment [2] has the same test system. The experiment is described as follows: Plate B: synapses evaluation (PSD95/SYN) in hippocampal neurons injured with Aβ1-42. Type of experiment: cell-based. Particulars: Aβ 2.5 μM 24 h, FIG. 3. The protocol: as §1
Rat hippocampal neurons were cultured as described by Callizot et al., Operational dissection of β-amyloid cytopathic effects of cultured neurons, J. Neurosci. Res. 2013 May; 91(5): 706-16. Pregnant female rats of 17 days gestation (Rats Wistar; Janvier Labs France) were euthanized using a deep anesthesia with a CO2 chamber followed by a cervical dislocation. […]
The supernatant was discarded, and the pellet was resuspended in a defined culture medium consisting of Neurobasal medium with a 2% solution of B27 supplement, 2 mmol/liter of L-glutamine, 2% of PS solution, and 10 ng/ml of brain-derived neurotrophic factor (BDNF). Viable cells were counted in a Neubauer cytometer, using the trypan blue exclusion test. […]
(§4) Bambuterol was placed in a culture medium and preincubated for 1 hour before Aβ application. An Aβ1-42 preparation was added to a final concentration of 20 or 2.5 μM (=2 μM or 0.25 μM of AβO, evaluated by automatic WB) diluted in control medium in presence of the compound. […]
The following endpoints were assessed: • Total number of synapses (overlapping between PSD95/SYN).

Experiment [3] has as its system hyperphosphorylated Tau (AT100) in MAP-2 positive neurons. Briefly: Plate A: phospho Tau (AT100) evaluation in MAP-2 hippocampal neurons injured with Aβ1-42. Type of experiment: cell-based, rat. Particulars: Aβ 20 μM 24 h, FIG. 2D. The protocol:
as §1, §2, §3
The supernatant was discarded, and the pellet was resuspended in a defined culture medium consisting of Neurobasal medium with a 2% solution of B27 supplement, 2 mmol/liter of L-glutamine, 2% of PS solution, and 10 ng/ml of brain-derived neurotrophic factor (BDNF). Viable cells were counted in a Neubauer cytometer, using the trypan blue exclusion test. Cells were seeded at a density of 20,000 per well in 96-well plates precoated with poly-L-lysine and cultured at 37° C. in an air (95%)-CO2 (5%) incubator. The medium was changed every 2 days. […]
as §4

As for `COc1cc2c(cc1OC)C(=O)C(CC1CCN(Cc3ccccc3)CC1)C2` (stereo not drawn) [Donepezil], the “Neuronal survival (number of MAP-2 positive neurons)” value in experiment [1] (Aβ 20 μM 24 h, Donepezil 1 μM, FIG. 2A) is “significantly protect neurons from death”. For the same molecule, in experiment [1] (Aβ 20 μM 24 h, Donepezil 1 μM, FIG. 2B), the “Total neurite network (MAP-2 positive neurons)” value is recorded as “significantly preserved almost the whole neurite network”. For the same molecule, the “Neurite length per neuron (total neurite network normalized by the number of neurons)” value in experiment [1] (Aβ 20 μM 24 h, Donepezil 1 μM) is listed as “longer”. In addition, in experiment [2] (Donepezil 1 μM), the “Number of synapses (overlapping PSD95/SYN)” value is given as “mitigated the loss of synapses”. In addition, the “Hyperphosphorylation of Tau (AT100)” value in experiment [3] (Donepezil 1 μM) is “significantly mitigate this hyperphosphorylation”.

As for `CN(C)C(=O)Oc1cc(OC(=O)N(C)C)cc(C(O)CNC(C)(C)C)c1` (stereo not drawn) [bambuterol], the “Total neurite network (MAP-2 positive neurons)” value in experiment [1] (Aβ 20 μM 24 h, all investigated doses of bambuterol (1 nM to 1 μM), FIG. 2B) is reported as “exerted protective effects on the neurite network”. In experiment [1] (Aβ 20 μM 24 h, bambuterol 1 nM to 1 μM), the “Neurite length per neuron (total neurite network normalized by the number of neurons)” value is recorded as “did not change this parameter”. Also, the “Neuronal survival (number of MAP-2 positive neurons)” value in experiment [1] (Aβ 20 μM 24 h, bambuterol highest doses 500 nM and 1 μM, FIG. 2A) is on record as “did not show any protective effect”; in experiment [1] (Aβ 20 μM 24 h, bambuterol low doses 1 nM to 100 nM, preincubated 1 h, FIG. 2A), “significant neuroprotective effects to a similar or higher extent to donepezil”. For the same molecule, the “Dose of maximal effect on neurite network” value in experiment [1] (Aβ 20 μM 24 h, bell-shape curve, FIG. 2B) was 10 nM. For the same molecule, the “Dose of maximal effect on neuronal survival” value in experiment [1] (Aβ 20 μM 24 h, bell-shaped curve, FIG. 2A) worked out at 10 nM. For the same molecule, the “Effects of bambuterol compared with Donepezil (summary of the examples)” value in experiment [1] (bambuterol at a dose of 10 nM, hippocampal neurons injured with Aβ 1-42, overall statement over all readouts) is “comparable, and even greater, to those of Donepezil”. The “Number of synapses (overlapping PSD95/SYN)” value in experiment [2] (bambuterol from 10 nM to 100 nM) is “able to preserve the number of synapses”. Further, in experiment [3] (bambuterol all investigated doses (1 nM to 1 μM)), the “Hyperphosphorylation of Tau (AT100)” value is recorded as “significantly reduced the hyperphosphorylation of Tau”. In experiment [3] (bell-shape curve), the “Dose of maximal effect on hyperphosphorylation of Tau” value is on record as 10 nM.

Source of the values: patent publication US20210121432A1, “Bambuterol for the Treatment of Alzheimer's Disease” (priority 2018, published 2021).
